# Assay results: PMC5003625 (Journal of medicinal chemistry, 2016)
# What was measured:
# [1] = biological target: EZH1 pentameric complex (EZH1:EED:SUZ12:RBBP4:AEBP2) (Homo sapiens, UniProt Q92800); assay: Methyltransferase activity assay; type: biochemical; conditions: for fold loss of potency for EZH1: relative to the parent compound 5
# [2] = biological target: EZH2 trimeric complex (EZH2:EED:SUZ12) (Homo sapiens, UniProt Q15910); assay: Methyltransferase activity assay; type: biochemical; conditions: for fold loss of potency for EZH2: relative to the parent compound of the sentence (5, 24 or 53)
# Sequence of EZH2 trimeric complex (EZH2:EED:SUZ12) (Q15910 whole entry): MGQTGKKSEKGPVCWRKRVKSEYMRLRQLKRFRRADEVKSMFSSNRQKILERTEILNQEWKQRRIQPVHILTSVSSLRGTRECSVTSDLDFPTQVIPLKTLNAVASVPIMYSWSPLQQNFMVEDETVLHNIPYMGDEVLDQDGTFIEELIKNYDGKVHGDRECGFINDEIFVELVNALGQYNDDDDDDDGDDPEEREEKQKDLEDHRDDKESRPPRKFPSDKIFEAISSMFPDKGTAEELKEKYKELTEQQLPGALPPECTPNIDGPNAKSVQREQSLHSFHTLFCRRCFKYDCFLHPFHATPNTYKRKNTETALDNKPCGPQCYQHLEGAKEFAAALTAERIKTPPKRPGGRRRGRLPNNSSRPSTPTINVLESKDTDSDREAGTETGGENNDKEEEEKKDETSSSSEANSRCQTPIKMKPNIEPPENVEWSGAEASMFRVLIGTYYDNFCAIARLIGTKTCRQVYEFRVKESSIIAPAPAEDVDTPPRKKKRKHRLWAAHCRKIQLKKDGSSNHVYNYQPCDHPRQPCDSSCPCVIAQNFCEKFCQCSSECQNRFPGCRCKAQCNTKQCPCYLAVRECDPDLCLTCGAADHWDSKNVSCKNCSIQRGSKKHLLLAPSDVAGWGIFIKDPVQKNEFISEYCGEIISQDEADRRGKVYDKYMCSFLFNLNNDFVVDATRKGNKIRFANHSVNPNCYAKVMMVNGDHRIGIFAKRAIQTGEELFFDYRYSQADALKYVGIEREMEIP
# Sequence of EZH2 trimeric complex (EZH2:EED:SUZ12) (O75530 whole entry partner): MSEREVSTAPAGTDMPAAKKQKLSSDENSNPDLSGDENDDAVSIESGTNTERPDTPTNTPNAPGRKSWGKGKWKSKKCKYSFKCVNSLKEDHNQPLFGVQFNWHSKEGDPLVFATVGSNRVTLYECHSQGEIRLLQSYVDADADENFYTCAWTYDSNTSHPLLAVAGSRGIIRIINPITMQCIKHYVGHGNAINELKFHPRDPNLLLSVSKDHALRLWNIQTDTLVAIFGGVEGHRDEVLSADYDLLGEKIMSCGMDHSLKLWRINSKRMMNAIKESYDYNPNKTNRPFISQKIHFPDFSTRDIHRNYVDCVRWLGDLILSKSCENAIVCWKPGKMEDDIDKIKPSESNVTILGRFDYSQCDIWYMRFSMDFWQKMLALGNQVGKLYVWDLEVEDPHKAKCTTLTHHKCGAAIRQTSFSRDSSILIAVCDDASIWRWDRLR
# Sequence of EZH2 trimeric complex (EZH2:EED:SUZ12) (Q15022 whole entry partner): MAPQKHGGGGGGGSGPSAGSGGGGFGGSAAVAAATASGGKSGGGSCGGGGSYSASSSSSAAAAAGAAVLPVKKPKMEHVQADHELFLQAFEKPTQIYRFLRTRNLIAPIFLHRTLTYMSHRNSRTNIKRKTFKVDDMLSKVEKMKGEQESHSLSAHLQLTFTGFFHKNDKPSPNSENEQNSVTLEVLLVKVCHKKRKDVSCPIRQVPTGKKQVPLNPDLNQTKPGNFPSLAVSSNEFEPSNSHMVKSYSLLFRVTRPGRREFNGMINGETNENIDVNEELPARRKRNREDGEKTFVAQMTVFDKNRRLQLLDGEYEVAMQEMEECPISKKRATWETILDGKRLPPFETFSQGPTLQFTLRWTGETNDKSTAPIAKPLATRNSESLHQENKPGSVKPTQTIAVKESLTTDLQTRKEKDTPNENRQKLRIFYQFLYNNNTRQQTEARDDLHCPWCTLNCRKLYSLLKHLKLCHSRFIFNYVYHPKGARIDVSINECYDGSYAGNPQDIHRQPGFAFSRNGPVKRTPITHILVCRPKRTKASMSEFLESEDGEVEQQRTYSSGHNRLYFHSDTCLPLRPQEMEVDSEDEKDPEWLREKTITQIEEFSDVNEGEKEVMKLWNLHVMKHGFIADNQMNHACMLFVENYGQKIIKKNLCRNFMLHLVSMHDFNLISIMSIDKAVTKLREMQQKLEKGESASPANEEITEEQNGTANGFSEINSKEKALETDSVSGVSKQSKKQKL
# Sequence of EZH1 pentameric complex (EZH1:EED:SUZ12:RBBP4:AEBP2) (Q92800 whole entry): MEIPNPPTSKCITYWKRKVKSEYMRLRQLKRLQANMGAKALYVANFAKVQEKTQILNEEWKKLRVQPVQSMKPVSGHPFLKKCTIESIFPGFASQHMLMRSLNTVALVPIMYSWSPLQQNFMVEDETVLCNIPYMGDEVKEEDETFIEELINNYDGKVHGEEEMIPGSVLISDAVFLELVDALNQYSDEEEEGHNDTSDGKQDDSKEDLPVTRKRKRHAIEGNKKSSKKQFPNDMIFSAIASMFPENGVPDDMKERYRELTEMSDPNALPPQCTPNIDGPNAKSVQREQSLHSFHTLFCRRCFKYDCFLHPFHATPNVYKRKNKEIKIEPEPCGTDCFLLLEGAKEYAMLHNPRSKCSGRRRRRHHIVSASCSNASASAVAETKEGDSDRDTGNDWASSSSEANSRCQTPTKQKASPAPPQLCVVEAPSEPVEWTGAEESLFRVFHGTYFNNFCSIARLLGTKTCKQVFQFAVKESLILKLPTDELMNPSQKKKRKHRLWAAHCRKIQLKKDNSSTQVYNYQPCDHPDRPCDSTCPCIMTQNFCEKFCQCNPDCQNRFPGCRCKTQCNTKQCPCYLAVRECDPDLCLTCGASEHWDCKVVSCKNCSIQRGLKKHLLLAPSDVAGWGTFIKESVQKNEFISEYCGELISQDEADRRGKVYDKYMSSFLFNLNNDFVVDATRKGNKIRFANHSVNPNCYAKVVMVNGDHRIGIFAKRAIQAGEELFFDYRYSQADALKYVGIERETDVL
# Sequence of EZH1 pentameric complex (EZH1:EED:SUZ12:RBBP4:AEBP2) (O75530 whole entry partner): as the sequence (O75530 whole entry partner) above
# Sequence of EZH1 pentameric complex (EZH1:EED:SUZ12:RBBP4:AEBP2) (Q15022 whole entry partner): as the sequence (Q15022 whole entry partner) above
# Sequence of EZH1 pentameric complex (EZH1:EED:SUZ12:RBBP4:AEBP2) (Q09028 whole entry partner): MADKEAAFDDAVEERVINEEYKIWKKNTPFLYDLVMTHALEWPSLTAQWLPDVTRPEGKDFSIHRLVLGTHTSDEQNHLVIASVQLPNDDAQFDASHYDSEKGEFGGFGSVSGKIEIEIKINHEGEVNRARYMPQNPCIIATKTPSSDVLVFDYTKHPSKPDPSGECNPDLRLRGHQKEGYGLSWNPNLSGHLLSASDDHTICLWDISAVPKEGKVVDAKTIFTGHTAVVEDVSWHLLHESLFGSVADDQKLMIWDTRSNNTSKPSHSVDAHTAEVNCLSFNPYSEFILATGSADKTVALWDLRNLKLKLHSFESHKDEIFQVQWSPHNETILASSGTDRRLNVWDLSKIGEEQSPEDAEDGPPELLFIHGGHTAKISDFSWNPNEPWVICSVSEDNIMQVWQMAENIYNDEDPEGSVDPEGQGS
# Sequence of EZH1 pentameric complex (EZH1:EED:SUZ12:RBBP4:AEBP2) (Q6ZN18 whole entry partner): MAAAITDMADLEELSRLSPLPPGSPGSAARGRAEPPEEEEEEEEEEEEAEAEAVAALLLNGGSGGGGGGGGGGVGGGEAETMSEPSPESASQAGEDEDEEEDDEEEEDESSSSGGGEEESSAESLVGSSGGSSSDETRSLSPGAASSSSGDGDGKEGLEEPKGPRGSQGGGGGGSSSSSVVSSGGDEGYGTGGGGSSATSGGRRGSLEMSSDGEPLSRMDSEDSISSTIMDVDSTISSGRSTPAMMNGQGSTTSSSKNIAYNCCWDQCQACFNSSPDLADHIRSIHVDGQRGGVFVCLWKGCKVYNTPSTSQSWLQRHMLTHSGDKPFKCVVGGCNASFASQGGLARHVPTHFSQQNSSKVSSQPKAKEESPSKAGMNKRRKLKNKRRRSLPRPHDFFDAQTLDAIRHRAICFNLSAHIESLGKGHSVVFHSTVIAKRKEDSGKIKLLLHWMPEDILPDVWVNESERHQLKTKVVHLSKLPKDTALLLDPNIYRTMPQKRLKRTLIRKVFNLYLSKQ
SMILES,"inhibitory activity against EZH1, in words [1]","inhibitory activity against EZH2, in words [2]",further results
"CCc1cc(C)[nH]c(=O)c1CNC(=O)c1cc(-c2ccc(N3CCN(C(C)C)CC3)nc2)cc2c1cnn2C(C)C [Compound 25, N-((4-Ethyl-6-methyl-2-oxo-1,2-dihydropyridin-3-yl)methyl)-1-isopropyl-6-(6-(4-isopropylpiperazin-1-yl)pyridin-3-yl)-1H-indazole-4-carboxamide]",–,–,fold increase in EZH1 potency ([1]; relative to compound 24): more than 3 fold
"CCc1cc(C)c(CNC(=O)c2cc(-c3ccc(N4CCN(C(C)C)CC4)nc3)cc3c2cnn3C(C)C)c(=O)[nH]1 [Compound 30, N-((6-Ethyl-4-methyl-2-oxo-1,2-dihydropyridin-3-yl)methyl)-1-isopropyl-6-(6-(4-isopropylpiperazin-1-yl)pyridin-3-yl)-1H-indazole-4-carboxamide]",did not exhibit appreciable inhibitory activity,–,–
"CCC(C)c1cc(C)c(CNC(=O)c2cc(-c3ccc(N4CCN(C(C)C)CC4)nc3)cc3c2cnn3C(C)C)c(=O)[nH]1 (stereo not shown) [Compound 31, N-((6-(sec-Butyl)-4-methyl-2-oxo-1,2-dihydropyridin-3-yl)-methyl)-1-isopropyl-6-(6-(4-isopropylpiperazin-1-yl)pyridin-3-yl)-1H-indazole-4-carboxamide]",did not exhibit appreciable inhibitory activity,–,–
"Cc1cc(C(C)(C)C)[nH]c(=O)c1CNC(=O)c1cc(-c2ccc(N3CCN(C(C)C)CC3)nc2)cc2c1cnn2C(C)C [Compound 32, N-((6-(tert-Butyl)-4-methyl-2-oxo-1,2-dihydropyridin-3-yl)-methyl)-1-isopropyl-6-(6-(4-isopropylpiperazin-1-yl)pyridin-3-yl)-1H-indazole-4-carboxamide]",complete loss of potency,complete loss of potency,–
"Cc1cc(-c2ccccc2)[nH]c(=O)c1CNC(=O)c1cc(-c2ccc(N3CCN(C(C)C)CC3)nc2)cc2c1cnn2C(C)C [Compound 33, 1-Isopropyl-6-(6-(4-isopropylpiperazin-1-yl)pyridin-3-yl)-N-((4-methyl-2-oxo-6-phenyl-1,2-dihydropyridin-3-yl)methyl)-1H-inda-zole-4-carboxamide]",complete loss of potency,complete loss of potency,–
"CC(C)N1CCN(c2ccc(-c3cc(C(=O)NCc4ccc[nH]c4=O)c4cnn(C(C)C)c4c3)cn2)CC1 [Compound 34, 1-Isopropyl-6-(6-(4-isopropylpiperazin-1-yl)pyridin-3-yl)-N-((2-oxo-1,2-dihydropyridin-3-yl)methyl)-1H-indazole-4-carboxamide]",–,–,fold loss of potency for EZH2 [2]: > 500 fold
"Cc1cc(O)c(CNC(=O)c2cc(-c3ccc(N4CCN(C(C)C)CC4)nc3)cc3c2cnn3C(C)C)c(=O)[nH]1 [Compound 39, N-((4-Hydroxy-6-methyl-2-oxo-1,2-dihydropyridin-3-yl)methyl)-1-isopropyl-6-(6-(4-isopropylpiperazin-1-yl)pyridin-3-yl)-1H-inda-zole-4-carboxamide]",total loss of potency,total loss of potency,–
"Cc1ncc(CNC(=O)c2cc(-c3ccc(N4CCN(C(C)C)CC4)nc3)cc3c2cnn3C(C)C)c(=O)[nH]1 [Compound 40, 1-Isopropyl-6-(6-(4-isopropylpiperazin-1-yl)pyridin-3-yl)-N-((2-methyl-6-oxo-1,6-dihydropyrimidin-5-yl)methyl)-1H-indazole-4-carboxamide]",completely abrogated inhibitory activity,completely abrogated inhibitory activity,–
"CC(C)N1CCN(c2ccc(-c3cc(C(=O)NCc4cnc[nH]c4=O)c4cnn(C(C)C)c4c3)cn2)CC1 [Compound 41, 1-Isopropyl-6-(6-(4-isopropylpiperazin-1-yl)pyridin-3-yl)-N-((6-oxo-1,6-dihydropyrimidin-5-yl)methyl)-1H-indazole-4-carboxamide]",completely abrogated inhibitory activity,completely abrogated inhibitory activity,–
"Cc1[nH]c(=O)[nH]c(=O)c1CNC(=O)c1cc(-c2ccc(N3CCN(C(C)C)CC3)nc2)cc2c1cnn2C(C)C [Compound 42, 1-Isopropyl-6-(6-(4-isopropylpiperazin-1-yl)pyridin-3-yl)-N-((6-methyl-2,4-dioxo-1,2,3,4-tetrahydropyrimidin-5-yl)methyl)-1H-in-dazole-4-carboxamide]",completely abrogated inhibitory activity,completely abrogated inhibitory activity,–
"CC(C)N1CCN(c2ccc(-c3cc(C(=O)NC4CC(C)(C)NC(C)(C)C4)c4cnn(C(C)C)c4c3)cn2)CC1 [Compound 43, 1-Isopropyl-6-(6-(4-isopropylpiperazin-1-yl)pyridin-3-yl)-N-(2,2,6,6-tetramethylpiperidin-4-yl)-1H-indazole-4-carboxamide]",complete loss of potency,complete loss of potency,–
"CCCc1cc(C)[nH]c(=O)c1CNC(=O)c1cc(-c2ccc(N3CCN(C(C)C)CC3)nc2)cc2nn(C(C)C)cc12 [Compound 44, 2-Isopropyl-6-(6-(4-isopropylpiperazin-1-yl)pyridin-3-yl)-N-((6-methyl-2-oxo-4-propyl-1,2-dihydropyridin-3-yl)methyl)-2H-inda-zole-4-carboxamide]",–,–,fold loss of potency for EZH1 [1]: more than 30 fold; fold loss of potency for EZH2 [2]: more than 30 fold
"CCCc1cc(C)[nH]c(=O)c1CNC(=O)c1nn(C(C)C)c2cc(-c3ccc(N4CCN(C(C)C)CC4)nc3)ccc12 [Compound 45, 1-Isopropyl-6-(6-(4-isopropylpiperazin-1-yl)pyridin-3-yl)-N-((6-methyl-2-oxo-4-propyl-1,2-dihydropyridin-3-yl)methyl)-1H-inda-zole-3-carboxamide]",obliterated the inhibitory activity,obliterated the inhibitory activity,–
"CCCc1cc(C)[nH]c(=O)c1CNC(=O)c1nn(C(C)C)c2ccc(-c3ccc(N4CCN(C(C)C)CC4)nc3)cc12 [Compound 46, 1-Isopropyl-5-(6-(4-isopropylpiperazin-1-yl)pyridin-3-yl)-N-((6-methyl-2-oxo-4-propyl-1,2-dihydropyridin-3-yl)methyl)-1H-inda-zole-3-carboxamide]",complete loss of potency,complete loss of potency,–
"CCCc1cc(C)[nH]c(=O)c1CNC(=O)c1cc(-c2ccc(N3CCN(C(C)C)CC3)nc2)c2cnn(C(C)C)c2c1 [Compound 47, 1-Isopropyl-4-(6-(4-isopropylpiperazin-1-yl)pyridin-3-yl)-N-((6-methyl-2-oxo-4-propyl-1,2-dihydropyridin-3-yl)methyl)-1H-inda-zole-6-carboxamide]",abolished all EZH1 inhibition,–,–
"CCCc1cc(C)[nH]c(=O)c1CNC(=O)c1cc(-c2ccc(N3CCN(C(C)C)CC3)nc2)cc2c1cnn2CC1CCCC1 [Compound 58, 1-(Cyclopentylmethyl)-6-(6-(4-isopropylpiperazin-1-yl)pyridin-3-yl)-N-((6-methyl-2-oxo-4-propyl-1,2-dihydropyridin-3-yl)methyl)-1H-indazole-4-carboxamide]",–,–,fold loss of potency for EZH2 [2]: > 15 fold
"CCCc1cc(C)[nH]c(=O)c1CNC(=O)c1cc(-c2ccc(N3CCN(C(C)C)CC3)nc2)cc2c1cnn2CC1CCCCC1 [Compound 59, 1-(Cyclohexylmethyl)-6-(6-(4-isopropylpiperazin-1-yl)pyridin-3-yl)-N-((6-methyl-2-oxo-4-propyl-1,2-dihydropyridin-3-yl)methyl)-1H-indazole-4-carboxamide]",–,significant drop in potency,–
"CCCc1cc(C)[nH]c(=O)c1CNC(=O)c1cc(-c2ccc(N3CCN(C(C)C)CC3)nc2)cc2c1cnn2CCC1CCCCC1 [Compound 62, 1-(2-Cyclohexylethyl)-6-(6-(4-isopropylpiperazin-1-yl)pyridin-3-yl)-N-((6-methyl-2-oxo-4-propyl-1,2-dihydropyridin-3-yl)methyl)-1H-indazole-4-carboxamide]",–,significant drop in potency,–
"CCCc1cc(C)[nH]c(=O)c1CNC(=O)c1cc(-c2ccccc2)cc2c1cnn2C(C)C [Compound 66, 1-Isopropyl-N-((6-methyl-2-oxo-4-propyl-1,2-dihydropyridin-3-yl)methyl)-6-phenyl-1H-indazole-4-carboxamide]",–,relatively good potency,–
CCCc1cc(C)[nH]c(=O)c1CNC(=O)c1cc(-c2ccc(F)cc2)cc2c1cnn2C(C)C [Compound 67],–,relatively good potency,–
"CCCc1cc(C)[nH]c(=O)c1CNC(=O)c1cc(-c2ccc(C(F)(F)F)cc2)cc2c1cnn2C(C)C [Compound 68, 1-Isopropyl-N-((6-methyl-2-oxo-4-propyl-1,2-dihydropyridin-3-yl)methyl)-6-(4-(trifluoromethyl)phenyl)-1H-indazole-4-carboxa-mide]",–,relatively good potency,–
"CCCc1cc(C)[nH]c(=O)c1CNC(=O)c1cc(C2CCNCC2)cc2c1cnn2C(C)C [Compound 72, 1-Isopropyl-N-((6-methyl-2-oxo-4-propyl-1,2-dihydropyridin-3-yl)methyl)-6-(piperidin-4-yl)-1H-indazole-4-carboxamide]",–,–,fold loss of potency for EZH1 [1]: more than 10 fold
"CCCc1cc(C)[nH]c(=O)c1CNC(=O)c1cc(N2CCNCC2)cc2c1cnn2C(C)C [Compound 73, 1-Isopropyl-N-((6-methyl-2-oxo-4-propyl-1,2-dihydropyridin-3-yl)methyl)-6-(piperazin-1-yl)-1H-indazole-4-carboxamide]",–,–,fold loss of potency for EZH1 [1]: more than 10 fold
"CCCc1cc(C)[nH]c(=O)c1CNC(=O)c1cc(Br)cc2c1cnn2C(C)C [Compound 76, 6-Bromo-1-isopropyl-N-((6-methyl-2-oxo-4-propyl-1,2-dihydro-pyridin-3-yl)methyl)-1H-indazole-4-carboxamide]",–,–,fold loss of potency for EZH2 [2]: 3–4 fold
